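GI50 marks 50% less growth. The concentration for full growth arrest is given as TGI.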
Key:
Assay in all cases: inhibition of tumour cell growth, NCI panel, 384-well format
NCI-H226 lung = test system: NCI-H226 lung
CAKI-1 renal = test system: CAKI-1 renal
KM12 colon = test system: KM12 colon
T-47D breast = test system: T-47D breast
SF-295 CNS = test system: SF-295 CNS
CCRF-CEM leukemia = test system: CCRF-CEM leukemia
HCT-15 colon = test system: HCT-15 colon
A549 NSCLC = test system: A549 NSCLC
U251 glioblastoma = test system: U251 glioblastoma
NCI-H322M lung = test system: NCI-H322M lung
DU-145 prostate = test system: DU-145 prostate
MALME-3M melanoma = test system: MALME-3M melanoma
SF-539 CNS = test system: SF-539 CNS
MOLT-4 leukemia = test system: MOLT-4 leukemia
SW-620 colon = test system: SW-620 colon
HT29 colon = test system: HT29 colon
MDA-MB-231 breast = test system: MDA-MB-231 breast
MDA-MB-468 breast = test system: MDA-MB-468 breast
UACC-257 melanoma = test system: UACC-257 melanoma
M14 melanoma = test system: M14 melanoma
COLO 205 colon = test system: COLO 205 colon
OVCAR-8 ovarian = test system: OVCAR-8 ovarian
HCC-2998 colon = test system: HCC-2998 colon
UACC-62 melanoma = test system: UACC-62 melanoma
LOX IMVI melanoma = test system: LOX IMVI melanoma
NCI-H522 lung = test system: NCI-H522 lung
K-562 leukemia = test system: K-562 leukemia
HCT-116 colon = test system: HCT-116 colon
SR leukemia = test system: SR leukemia
RXF 393 renal = test system: RXF 393 renal
EKVX NSCLC = test system: EKVX NSCLC
HL-60(TB) leukemia = test system: HL-60(TB) leukemia
BT-549 breast = test system: BT-549 breast
SK-MEL-28 melanoma = test system: SK-MEL-28 melanoma
786-0 renal = test system: 786-0 renal
HS 578T breast = test system: HS 578T breast
ACHN renal = test system: ACHN renal
A498 renal = test system: A498 renal
SN12C renal = test system: SN12C renal
SK-MEL-2 melanoma = test system: SK-MEL-2 melanoma
UO-31 renal = test system: UO-31 renal
OVCAR-4 ovarian = test system: OVCAR-4 ovarian
TK-10 renal = test system: TK-10 renal
PC-3 prostate = test system: PC-3 prostate
SF-268 CNS = test system: SF-268 CNS
NCI-H23 lung = test system: NCI-H23 lung
OVCAR-3 ovarian = test system: OVCAR-3 ovarian

O=S(=O)(c1ccc2c(c1)C(=NO)c1cc(S(=O)(=O)N3CCCCC3)ccc1-2)N1CCCCC1
GI50 (NCI-H226 lung): 168 nM | TGI (NCI-H226 lung): 309 nM | GI50 (CAKI-1 renal): 19 nM | TGI (CAKI-1 renal): 35.2 nM | GI50 (KM12 colon): 177 nM | TGI (KM12 colon): 329 nM | GI50 (T-47D breast): 155 nM | TGI (T-47D breast): 290 nM | GI50 (SF-295 CNS): 176 nM | TGI (SF-295 CNS): 316 nM | GI50 (CCRF-CEM leukemia): 82.5 nM | TGI (CCRF-CEM leukemia): 205 nM | GI50 (HCT-15 colon): 186 nM | TGI (HCT-15 colon): 333 nM | GI50 (A549 NSCLC): 171 nM | TGI (A549 NSCLC): 315 nM | GI50 (U251 glioblastoma): 189 nM | TGI (U251 glioblastoma): 341 nM | GI50 (NCI-H322M lung): 178 nM | TGI (NCI-H322M lung): 320 nM | GI50 (DU-145 prostate): 177 nM | TGI (DU-145 prostate): 318 nM | GI50 (MALME-3M melanoma): 179 nM | TGI (MALME-3M melanoma): 321 nM | GI50 (SF-539 CNS): 174 nM | TGI (SF-539 CNS): 317 nM | GI50 (MOLT-4 leukemia): 168 nM | TGI (MOLT-4 leukemia): 306 nM | GI50 (SW-620 colon): 182 nM | TGI (SW-620 colon): 323 nM | GI50 (HT29 colon): 184 nM | TGI (HT29 colon): 326 nM | GI50 (MDA-MB-231 breast): 139 nM | TGI (MDA-MB-231 breast): 270 nM | GI50 (MDA-MB-468 breast): 58.4 nM | TGI (MDA-MB-468 breast): 171 nM | GI50 (UACC-257 melanoma): 180 nM | TGI (UACC-257 melanoma): 320 nM | GI50 (M14 melanoma): 170 nM | TGI (M14 melanoma): 308 nM | GI50 (COLO 205 colon): 184 nM | TGI (COLO 205 colon): 325 nM | GI50 (OVCAR-8 ovarian): 153 nM | TGI (OVCAR-8 ovarian): 288 nM | GI50 (HCC-2998 colon): 166 nM | TGI (HCC-2998 colon): 303 nM | GI50 (UACC-62 melanoma): 182 nM | TGI (UACC-62 melanoma): 323 nM | GI50 (LOX IMVI melanoma): 17.2 nM | TGI (LOX IMVI melanoma): 32 nM | GI50 (NCI-H522 lung): 172 nM | TGI (NCI-H522 lung): 314 nM | GI50 (K-562 leukemia): 170 nM | TGI (K-562 leukemia): 313 nM | GI50 (HCT-116 colon): 173 nM | TGI (HCT-116 colon): 316 nM | GI50 (SR leukemia): 158 nM | TGI (SR leukemia): 294 nM | GI50 (RXF 393 renal): 118 nM | TGI (RXF 393 renal): 242 nM | GI50 (EKVX NSCLC): 115 nM | TGI (EKVX NSCLC): 241 nM | GI50 (HL-60(TB) leukemia): 16.9 nM | TGI (HL-60(TB) leukemia): 30.9 nM | GI50 (BT-549 breast): 179 nM | TGI (BT-549 breast): 319 nM | GI50 (SK-MEL-28 melanoma): 171 nM | TGI (SK-MEL-28 melanoma): 309 nM | GI50 ([…]-0 renal): 223 nM | TGI (786-0 renal): 525 nM | GI50 (HS 578T breast): 175 nM | TGI (HS 578T breast): 314 nM | GI50 (ACHN renal): 17.6 nM | TGI (ACHN renal): 31.6 nM | GI50 (A498 renal): 1490 nM | TGI (A498 renal): 3100 nM | GI50 (SN12C renal): 181 nM | TGI (SN12C renal): 323 nM | GI50 (SK-MEL-2 melanoma): 196 nM | TGI (SK-MEL-2 melanoma): 339 nM | GI50 (UO-31 renal): 16 nM | TGI (UO-31 renal): 29.8 nM | GI50 (OVCAR-4 ovarian): 17.9 nM | TGI (OVCAR-4 ovarian): 34.4 nM | GI50 (TK-10 renal): 187 nM | TGI (TK-10 renal): 336 nM | GI50 (PC-3 prostate): 165 nM | TGI (PC-3 prostate): 303 nM | GI50 (SF-268 CNS): 165 nM | TGI (SF-268 CNS): 303 nM | GI50 (NCI-H23 lung): 92.7 nM | TGI (NCI-H23 lung): 228 nM | GI50 (OVCAR-3 ovarian): 146 nM | TGI (OVCAR-3 ovarian): 281 nM
